Reference: EP2487185A1, “Hexapeptide with improved activity in the repair of cellular DNA of dermal cells” (Clinuvel Pharmaceuticals Limited, priority 2011, dated 2012)
Non-standard residues stand in square brackets, D forms with d. Nle = CCCC[C@H](N)C(=O)O

Legend:
Assay type in all cases: cell-based, human
[1] = system: lightly pigmented strain 1563c and strain 102b; assay: Ultrastructural visualization of DOPA-stained HM (electron microscopy); details: 0.1 nM or 1 nM CUV9900 or 1 nM MSH; strains 1563c and 102b
Description: With reference to Figs. 14 and 15, two melanocytic strains, a lightly pigmented strain 1563c of Fig. 14 and strain 102b of Fig. 15 were plated in 4-well chamber slides and treated […] with either 0.1 nM or 1 nM CUV9900 or 1 nM MSH for a total of 6 days. Cells were processed for electron microscopy in the presence or absence of histochemical reaction with DOPA. Microtome sections were analyzed in a JEOL JEM-1230 transmission electron microscope and photomicrographs (15,000 X) of the perinuclear area and dendrites were taken for each experimental group.

[2] = system: melanocyte strain 1505b; assay: Tyrosinase activity, dose-response, 6 days treatment
Description: (§1) Dose-response experiments were carried out on another adult strain 102b which is shown in Fig. 6 and on the strain 1505b which is a melanocyte strain: melanocytes were treated with 0.001-10 nM CUV9990 or NDP-MSH, or 0.1-10 nM MSH for a total of 6 days, with the culture medium changed and fresh peptide added every other day. Cell numbers as well as tyrosinase activity were then determined. Tyrosinase activity was calculated first at activity/10^6 cells, and then as % of control. Twenty-four hours prior the end of the experiment, melanocytes received ^3H-tyrosinase (0.7 µCi/ml medium). The conditioned medium from each dish was collected to be assayed for tyrosinase activity, and the cell numbers were determined using a Coulter Counter. Triplicate dishes were included in each group, and duplicate samples from each dish were assayed for tyrosinase activity. Each data point is the mean percent of control of 6 determinations/group ±S.E.

[3] = system: melanocyte strain 102b; assay: as above
Description: as §1, with “Cell” for “Dose-response experiments were carried out on another adult strain 102b which is shown in Fig. 6 and on the strain 1505b which is a melanocyte strain: melanocytes were treated with 0.001-10 nM CUV9990 or NDP-MSH, or 0.1-10 nM MSH for a total of 6 days, with the culture medium changed and fresh peptide added every other day. Cell”

[4] = system: Melanocytes; assay: DNA damage as measured by cyclobutane pyrimidine dimers (CPD), flow cytometry; details: 48 h after 105 mJ/cm^2 UV; 10 nM α-MSH, 1 nM NDP-MSH or 1 nM CUV9900, 4 days prior to and 2 days after UV
Description: Cyclobutane pyrimidine dimers (CPD), the major determinant of UV induced DNA photoproducts, were detected using flow cytometry analysis.
Melanocytes were pretreated with 0 (control), 10 nM α-MSH or 1 nM NDP-MSH or 1 nM CUV9900 for 4 days prior to, and 2 days after exposure to 105 mJ/cm^2 UV, harvested 48 hours post irradiation, fixated with 70% ethanol, the DNA denatured with 1N HCl/0.2 mg/ml pepsin, then renaturated with sodium tetraborate. Melanocytes were blocked and incubated overnight at 4°C with the anti-CPD antibody (diluted 1:500; TDM-2 clone), then with goat anti-mouse IgG Alexa Fluor 488 (Invitrogen, Carlsbad CA) for 1 hour, and finally resuspended in PBS containing RNase A and propidium iodide. Melanocytes were analyzed on a Coulter EPICS XL flow cytometer (Beckman Coulter) using a 488nm argon ion laser A 525 band pass filter was used for the Alexa fluor 488 and a 620 band pass filter for the propidium iodide.

[5] = system: melanocyte strain 1513c; assay: Cell proliferation as a measure of stability; details: for Cell proliferation, column 2: column 2, not defined; for Cell proliferation, Mean [1+2]: STRAIN 1513c, mean over experiments [1] and [2]
Description: With continued reference to Figs. 7, 8 and 9, to determine the stability of CUV9900 versus that of NDP-MSH and α-MSH, melanocytes were treated with 1 nM of each peptide, namely with CUV9900, NDP-MSH and α-MSH, for a total of 6 days, or with 1 nM peptides that were incubated for 5 hours at 37 °C prior to addition to the cultures, every other day, for a total of 6 days. Tyrosinase activity was measured at the end of treatment. In the experiments, cell number represents the mean percent of control of 3 determinations/ group ±SE, and tyrosinase activity data represent the mean percent of control of 6 determinations ±S.E. It should be noted that for the sake of reproducibility the experiment of strain 1513c of Fig. 9 was performed once more 6 months later than the experiment of Fig. 7.
Peptides were incubated at 37 degrees Celsius for 5 hours and then split into groups. Cell proliferation was a measure of stability, whereby the experiments on strain 1513c were divided in period 1 and 2 under standard conditions.

[6] = system: melanocyte strain 1513c; assay: Tyrosinase activity as a measure of stability / residual effect; details: for Tyrosinase activity, column 3: 4 days after peptide removal
Description: To determine the residual effect of CUV9900, as compared to NDP-MSH and α-MSH, on tyrosinase activity, melanocytes were treated with either CUV9900 or NDP-MSH at the concentrations previously described for a total of 3 days. Tyrosinase activity was measured at the end of the 3 days of treatment, and 2 and 4 days after maintenance of the melanocytes in the complete absence of any treatment. With continued reference to Figs. 7, 8 and 9, to determine the stability of CUV9900 versus that of NDP-MSH and α-MSH, melanocytes were treated with 1 nM of each peptide, namely with CUV9900, NDP-MSH and α-MSH, for a total of 6 days, or with 1 nM peptides that were incubated for 5 hours at 37 °C prior to addition to the cultures, every other day, for a total of 6 days. Tyrosinase activity was measured at the end of treatment. In the experiments, cell number represents the mean percent of control of 3 determinations/ group ±SE, and tyrosinase activity data represent the mean percent of control of 6 determinations ±S.E. It should be noted that for the sake of reproducibility the experiment of strain 1513c of Fig. 9 was performed once more 6 months later than the experiment of Fig. 7. […] Melanocytes were treated for 3 days with the designated concentrations of CUV9900, NDP-MSH, or MSH, then maintained in absence of peptides for 4 days. Tyrosinase activity was determined 3 days after treatment. Comparison of stability of CUV9900, NDP-MSH and MSH was compared in 1513c, as shown in Fig. 7; the strain was treated for 6 days with 1 nM CUV9900, NDP-MSH or MSH with fresh medium and peptide replenished every 2 days. Melanocytes were treated according to the same experiment protocol but each peptide was incubated for 5-7 hours at 37 degrees Celsius. […] The assessment of tyrosinase was statistically different from control, as determined by ANOVA (p=<0.05).

[7] = STRAIN 1513c [1], Table 1, mean of columns 1-3
[8] = STRAIN 1513c [2], Table 2, mean
[9] = STRAIN 1513c [1], Table 4 (Fig. 7), 1nM, after 3 days of treatment
[10] = STRAIN 1513c [1], Table 4, 1nM, column 2, apparently 2 days after removal of peptides
[11] = STRAIN 1513c [2], Table 5 (Fig. 9), 1 nM, 6 days, fresh peptide
[12] = STRAIN 1513c [2], Table 5, 1 nM, 6 days, peptide incubated 5-7 hours at 37 degrees Celsius
[13] = over the 2 experiments in strain 1513c

Row | Substance | minimal effective dose (tyrosinase activity) ([3]; 6 days treatment) | Absolute values of CPD products (CPD median fluorescence intensity) [4] | Cell proliferation, column 2 ([5]; STRAIN 1513c [1], Table 1, 1nM) | Cell proliferation, Mean [5, 7] | Cell proliferation, column 2 ([5]; STRAIN 1513c [2], Table 2) | Cell proliferation, Mean [5, 8] | Cell proliferation, Mean [1+2] ([5]; Table 2) | Tyrosinase activity, column 1 [6, 9] | Tyrosinase activity, column 3 ([6]; STRAIN 1513c [1], Table 4, 1nM) | Tyrosinase activity, column 2 [6, 10] | Tyrosinase activity, column 1 [6, 11] | Tyrosinase activity, column 2 [6, 12] | Tyrosinase activity, Mean ([6]; STRAIN 1513c [2], Table 5) | other results
1 | Ac-Nle-Glu His-D-Phe-Arg-Trp-NH2 (Ac-[Nle]EH[dF]RW-NH2; SMILES CCCC[C@H](NC(C)=O)C(=O)N[C@@H](CCC(=O)O)C(=O)N[C@@H](Cc1c[nH]cn1)C(=O)N[C@H](Cc1ccccc1)C(=O)N[C@@H](CCCNC(=N)N)C(=O)N[C@@H](Cc1c[nH]c2ccccc12)C(N)=O) [CUV9900, hexapeptide, alpha-MSH analogue] | 1 pM | ~11.55 | 108 % of control | 110.7 % of control | 119.8 % of control | 119.9 % of control | 114.3 % of control | 284 % of control | 160 % of control | 203 % of control | 385.1 % of control | 388.7 % of control | 386.9 % of control | melanosomes, electron microscopy [1]: increased mature (stage IV) melanosomes in the perinuclear area and more so in dendrites; effect on tyrosinase activity, comparison with NDP-MSH [2]: equivalent to that of NDP-MSH; minimal effective dose (tyrosinase activity) ([2]; 6 days treatment): 1 pM; stimulation of tyrosinase activity, comparison with NDP-MSH ([3]; subnanomolar concentrations): greater stimulation of tyrosinase activity than NDP-MSH; superior stability over MSH (tyrosinase activity) [6, 13]: 55.3%; superior stability over NDP (tyrosinase activity) [6, 13]: 15.7%; effect of incubation of the peptide on stimulation of tyrosinase activity ([6]; strain 1513c, 1 nM peptide incubated 5-7 hours at 37 degrees Celsius): no effect on its ability to stimulate tyrosinase activity
2 | Ac-Ser-Tyr-Ser-Nle-Glu-His-D-Phe-Arg-Trp-Gly-Lys-Pro-Val-NH2 [NDP-MSH, reference compound] | 1 pM | ~12.5 | 115 % of control | 112.7 % of control | 117.5 % of control | 115.0 % of control | 113.6 % of control | 302 % of control | 164 % of control | 203 % of control | 329.9 % of control | 229.2 % of control | 279.6 % of control | concentration achieving equal maximal stimulation of tyrosinase ([3]; 6 days treatment): 1 nM
